Source: patent US7964613B2 (Asahi Kasei Pharma Corporation, priority 2007, dated 2011)

Test system: intraocular pressure
Assay: Rabbit intraocular pressure reduction enhancing action, Test Example 7-1 (combination use)
Format: in vivo, Japanese white rabbit
Settings: 19-1 compound 0.01 weight % aqueous solution 50 μL, left-right eye difference at 2, 4, 6 hours, six rabbits
Method: However, the effect is not limited to the 19-1 compound, and the ophthalmic solution concentration of the 19-1 compound is not limited to those used in this test example. Moreover, as for the test compound used for combination use, similar effect can be obtained also with the compounds of the present invention represented with the example numbers mentioned in Test Example 3.
As a test compound, the 19-1 compound was dissolved in physiological saline, and the solution was neutralized by addition of sodium hydroxide (pH 7.0 to 8.0) to prepare a 0.01 weight % aqueous solution (19-1 compound aqueous solution). As the drugs for combination use, isopropyl unoprostone (trade name: Rescula, Santen Pharmaceutical) was used as a prostaglandin-related drug, and brinzolamide hydrochloride (trade name: Azopt, Alcon Japan) was used as […], as the marketed formulations as they were.
A Japanese white rabbit having a body weight of about 2 kg was placed in a positioner and naturalized for one week before the experiment. An opthalmologic local anesthesant (Benoxil) was administered to both eyes, and then intraocular pressure before instillation was measured by using a tonometer (Classic 30, Solan). A test aqueous solution or the drug for combination use was administered to the left eye, and the right eye was not treated (control eye). The test groups consisted of (1) control group, (2) group instilled only with the 19-1 compound aqueous solution (single drug group 1), (3) group instilled only with the drug for combination use (single drug group 2), and (4) group instilled with the drug for combination use and the 19-1 compound aqueous solution (combination use group), and six rabbits were used for each group. As for the rabbits of these groups, 50 μL of physiological saline was first instilled to the control group, single drug group 1, and single drug group 2, and the drug for combination use was first instilled in the same volume to the combination use group. […] The intraocular pressure thereafter was measured for each group 2, 4 and 6 hours after the second administration of the test compound, and the difference of the measured values for the left and right eyes at each measurement time was considered an intraocular pressure reduction value of each group. The largest difference of the intraocular pressure values for the left and right eyes among those of the measured values of the measurement times was considered the maximum intraocular pressure reduction value (max ? IOP) of each drug group.

SMILES: N[C@H]1CCN(S(=O)(=O)c2cccc3cncc(Cl)c23)C1 [Example 19-1, (S)-3-Amino-1-(4-chloro-5-isoquinolinesulfonyl)pyrrolidine]
- Max IOP (maximum intraocular pressure reduction value) (Table 4, Azopt 50 μL): 4.3 mmHg
- Max IOP (maximum intraocular pressure reduction value) (Table 5, Rescula 50 μL): 4.3 mmHg
